Measured values: ChEMBL document CHEMBL5143629, “Synthesis and evaluation of dual fatty acid amide hydrolase-monoacylglycerol lipase inhibition and antinociceptive activities of 4-methylsulfonylaniline-derived semicarbazones” (Bioorg Med Chem, 2022)
Calls of active or inactive are those of the source.

Legend:
[1] = Acute toxicity in rat assessed as reduction in food and water consumption at 2000 mg/kg, po measured after 14 days; assay type: organism-based; conditions: in vivo, 336 h, time 14 day
[2] = Aqueous solubility of compound in PBS at pH 7.4 measured for 20 hrs by HPLC-UV analysis; assay type: physicochemical
[3] = Acute toxicity in rat assessed as serum alkaline phosphates level at 2000 mg/kg, po measured after 14 days; assay type: organism-based; conditions: in vivo, 336 h, time 14 day
[4] = Acute toxicity in rat assessed as SGPT level at 2000 mg/kg, po measured after 14 days; assay type: organism-based; conditions: in vivo, 336 h, time 14 day
SH-SY5Y [5] = test: Cytotoxicity against human SH-SY5Y cells assessed as cell death upto 100 uM after 24 hrs by MTT assay; assay type: toxicity, cell-based
[6] = Acute toxicity in rat assessed as body weight at 2000 mg/kg, po measured after 14 days; assay type: organism-based; conditions: in vivo, 336 h, time 14 day
[7] = MRT (0 to infinity) in 12 to 16 hrs fasted Wistar rat at 20 mg/kg, po measured after 0.5 to 48 hrs by HPLC analysis; assay type: ADME, organism-based; conditions: in vivo, time 12-16 hrs
[8] = Acute toxicity in rat assessed as SGOT level at 2000 mg/kg, po measured after 14 days; assay type: organism-based; conditions: in vivo, 336 h, time 14 day
SH-SY5Y [9] = test: Neuroprotective activity against LPS-induced cell death in human SH-SY5Y cells assessed as cell viability at 100 uM after 24 hrs by MTT assay; assay type: functional; conditions: read-out: Activity
[10] = Acute toxicity in rat assessed as serum cholestrol level at 2000 mg/kg, po measured after 14 days; assay type: organism-based; conditions: in vivo, 336 h, time 14 day
[11] = Acute toxicity in rat assessed as serum uric acid level at 2000 mg/kg, po measured after 14 days; assay type: organism-based; conditions: in vivo, 336 h, time 14 day
[12] = Acute toxicity in rat assessed as effect on total bilirubin level at 2000 mg/kg, po measured after 14 days; assay type: organism-based; conditions: in vivo, 336 h, time 14 day
SH-SY5Y [13] = test: Neuroprotective activity against LPS-induced cell death in human SH-SY5Y cells assessed as cell viability at 30 uM after 24 hrs by MTT assay; assay type: functional; conditions: read-out: Activity
[14] = Acute toxicity in rat assessed as hemoglobin level at 2000 mg/kg, po measured after 14 days; assay type: organism-based; conditions: in vivo, 336 h, time 14 day
[15] = Acute toxicity in rat assessed as serum triglycerides level at 2000 mg/kg, po measured after 14 days; assay type: organism-based; conditions: in vivo, 336 h, time 14 day
[16] = Acute toxicity in rat assessed as lymphocytes level at 2000 mg/kg, po measured after 14 days; assay type: organism-based; conditions: in vivo, 336 h, time 14 day
[17] = AUC(0 to t) in 12 to 16 hrs fasted Wistar rat at 20 mg/kg, po measured after 0.5 to 48 hrs by HPLC analysis; assay type: ADME, organism-based; design: time upper 16 hrs, dose 20 mg/kg, time lower 12 hrs, route po; conditions: in vivo
[18] = Acute toxicity in female rat assessed as effect on liver histopathology at 2000 mg/kg, po measured after 14 days; assay type: organism-based; conditions: in vivo, 336 h, time 14 day
[19] = molecular target: T1, Fatty-acid amide hydrolase 1 (Homo sapiens, UniProt O00519); test: Inhibition of human recombinant FAAH using arachidonoyl as substrate preincubated for 5 mins followed by substrate addition by fluorescence based assay
T1 sequence (O00519 whole entry): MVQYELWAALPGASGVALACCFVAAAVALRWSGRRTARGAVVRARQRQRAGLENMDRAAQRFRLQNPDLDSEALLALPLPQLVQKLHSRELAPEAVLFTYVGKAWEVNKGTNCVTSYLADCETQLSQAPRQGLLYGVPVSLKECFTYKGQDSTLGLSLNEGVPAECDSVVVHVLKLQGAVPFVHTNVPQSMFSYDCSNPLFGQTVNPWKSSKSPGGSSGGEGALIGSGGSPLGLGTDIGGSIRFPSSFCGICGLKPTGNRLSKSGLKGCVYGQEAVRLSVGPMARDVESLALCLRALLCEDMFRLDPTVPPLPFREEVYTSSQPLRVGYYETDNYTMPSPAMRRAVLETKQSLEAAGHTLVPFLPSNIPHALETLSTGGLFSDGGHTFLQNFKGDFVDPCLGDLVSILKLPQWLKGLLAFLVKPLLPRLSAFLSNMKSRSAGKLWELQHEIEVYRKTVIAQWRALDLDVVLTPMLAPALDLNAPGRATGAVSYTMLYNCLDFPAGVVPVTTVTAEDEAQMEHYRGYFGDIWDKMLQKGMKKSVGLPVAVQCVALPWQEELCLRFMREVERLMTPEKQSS

Rattus norvegicus [20] = test: Ex vivo inhibition in rat brain assessed as reduction in FAAH level at 10 to 20 mg/kg, ip incubated for 20 mins in presence of AMC by fluorescence based multimode reader analysis; assay type: functional, organism-based; conditions: dose 10-20 mg/kg
[21] = Acute toxicity in rat assessed as RDW level at 2000 mg/kg, po measured after 14 days; assay type: organism-based; conditions: in vivo, 336 h, time 14 day
[22] = Tmax in 12 to 16 hrs fasted Wistar rat at 20 mg/kg, po measured after 0.5 to 48 hrs by HPLC analysis; assay type: ADME, organism-based; conditions: in vivo, time 12-16 hrs
[23] = molecular target: T2, Fatty-acid amide hydrolase 1 (Homo sapiens) (UniProt O00519); test: Non-competitive inhibition of FAAH (unknown origin) assessed as increase in Km at 10 to 40 nM using arachidonoyl as substrate by Lineweaver-Burk plot analysis; conditions: dose 10-40 nM
T2 sequence (whole entry): T1 sequence (O00519 whole entry)

[24] = Effect on locomotory activity in CCI surgery-neuropathic pain induced nerve injured rat model at 20 mg/kg by rotarod test; assay type: toxicity, organism-based; conditions: in vivo
[25] = Cmax in 12 to 16 hrs fasted Wistar rat at 20 mg/kg, po measured after 0.5 to 48 hrs by HPLC analysis; assay type: ADME, organism-based; design: time upper 16 hrs, dose 20 mg/kg, time lower 12 hrs, route po; conditions: in vivo
[26] = Permeability of the compound across blood brain barrier incubated for 18 hrs by UV plate reader based PAMPA assay; assay type: ADME, tissue-based; conditions: read-out: permeability
[27] = Acute toxicity in rat assessed as neutrophils level at 2000 mg/kg, po measured after 14 days; assay type: organism-based; conditions: in vivo, 336 h, time 14 day
[28] = Effect on motor coordination in CCI surgery-neuropathic pain induced nerve injured rat model at 20 mg/kg by rotarod test; assay type: toxicity, organism-based; conditions: in vivo
Rattus norvegicus [29] = test: Antinociceptive activity in CCI surgery-neuropathic pain induced nerve injured rat model assessed as increase in mechanical ipsilateral paw withdrawal threshold at 5 to 20 mg/kg for 30 to 240 mins measured on day 14; assay type: functional, organism-based; conditions: dose 5-20 mg/kg, time 30-240 min
[30] = molecular target: T2, Fatty-acid amide hydrolase 1 (Homo sapiens); test: Non-competitive inhibition of FAAH (unknown origin) assessed as decrease in Vmax at 10 to 40 nM using arachidonoyl as substrate by Lineweaver-Burk plot analysis; conditions: dose 10-40 nM
[31] = molecular target: T2, Fatty-acid amide hydrolase 1 (Homo sapiens); test: Reversible inhibition of FAAH (unknown origin) using arachidonoyl as substrate by jump dilution method; conditions: time <= 60.0 min
[32] = Acute toxicity in rat assessed as MPV level at 2000 mg/kg, po measured after 14 days; assay type: organism-based; conditions: in vivo, 336 h, time 14 day
[33] = Acute toxicity in rat assessed as WBC level at 2000 mg/kg, po measured after 14 days; assay type: organism-based; conditions: in vivo, 336 h, time 14 day
[34] = Half life in 12 to 16 hrs fasted Wistar rat at 20 mg/kg, po measured after 0.5 to 48 hrs by HPLC analysis; assay type: ADME, organism-based; conditions: in vivo, time 12-16 hrs
[35] = molecular target: T1, Fatty-acid amide hydrolase 1; test: Non-competitive inhibition of FAAH (unknown origin) using arachidonoyl as substrate by Dixon plot analysis
[36] = Acute toxicity in rat assessed as behavioral abnormalities at 2000 mg/kg, po measured after 14 days; assay type: organism-based; conditions: in vivo, 336 h, time 14 day
Rattus norvegicus [37] = test: Antinociceptive activity in CCI surgery-neuropathic pain induced nerve injured rat model assessed tail flick latency at 5 to 20 mg/kg for 60 to 120 mins measured on day 14; assay type: functional, organism-based; conditions: dose 5-20 mg/kg, time 60-120 min
[38] = molecular target: T3, Monoglyceride lipase (Rattus norvegicus) (UniProt Q8R431); test: Ex vivo inhibition in rat brain assessed as reduction in MAGL level at 10 to 20 mg/kg, ip incubated for 20 mins in presence of NPA by fluorescence based multimode reader analysis; assay type: functional, organism-based; conditions: dose 10-20 mg/kg
T3 sequence (whole entry): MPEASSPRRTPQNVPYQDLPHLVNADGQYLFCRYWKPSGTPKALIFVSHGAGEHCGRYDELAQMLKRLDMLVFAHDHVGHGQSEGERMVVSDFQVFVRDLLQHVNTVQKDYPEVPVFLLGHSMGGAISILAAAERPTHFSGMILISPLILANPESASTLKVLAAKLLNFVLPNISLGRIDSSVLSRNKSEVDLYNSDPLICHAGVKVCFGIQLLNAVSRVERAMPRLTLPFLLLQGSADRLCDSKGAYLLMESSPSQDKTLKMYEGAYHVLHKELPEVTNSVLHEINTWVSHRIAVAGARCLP

CS(=O)(=O)c1ccc(NC(=O)N/N=C\c2c(Cl)cccc2Cl)cc1
Activity [1]: Non-Toxic | solubility at 20 h [2]: < 1 µg/mL | Activity [3]: Non-Toxic | Activity [4]: Non-Toxic | Activity (SH-SY5Y [5]): Non-Toxic | Activity [6]: Non-Toxic | MRT inf [7]: 30 min | Activity [8]: Non-Toxic | viability at 100 µM (SH-SY5Y [9]): 80% | Activity [10]: Non-Toxic | Activity [11]: Non-Toxic | Activity [12]: Non-Toxic | viability at 30 µM (SH-SY5Y [13]): 70% | Activity [14]: Non-Toxic | Activity [15]: Non-Toxic | Activity [16]: Non-Toxic | AUC(0-t) [17]: 8920 ng·h/mL | Activity [18]: Non-Toxic | IC50 [19]: 11 nM | Activity (Rattus norvegicus [20]): Active | Activity [21]: Non-Toxic | Tmax [22]: 30 min | inhibition [23]: Active | Activity [24]: Non-Toxic | Cmax [25]: 22000 ng/mL | Papp at 18 h [26]: 10.2 ×10⁻⁶ cm/s | Activity [27]: Non-Toxic | Activity [28]: Non-Toxic | Activity (Rattus norvegicus [29]): Active | inhibition [30]: Active | inhibition [31]: Active | Activity [32]: Non-Toxic | Activity [33]: Non-Toxic | half-life [34]: 34.8 min | Ki [35]: 28 nM | Activity [36]: Non-Toxic | Activity (Rattus norvegicus [37]): Active | Activity [38]: Active
